Test results from US10513694B2, “Thienopyrrole compounds and uses thereof” (PROMEGA CORPORATION, priority 2015, dated 2019).

Assays:
[1] = target: T1, purified Nluc (extracellular); Nluc-HALOTAG fusion protein (intracellular) (Oplophorus gracilirostris, UniProt Q9GV45, A31E/A60N/A81I/F95D/I117V/K70R/L54V/L99Q/M102K/N193R/P142E/Q151K/Q38R/Q45L/V71I/Y165I); assay: Inhibition of extracellular luciferase activity and enhancement of intracellular BRET; assay type: cell-based; details: HEK293 Nluc-HALOTAG + NANOBRET 618; 10 ng/mL extracellular purified Nluc; 2 hrs
T1 construct: expressed in transfected cells; host or cells: HEK293 (Nluc-HaloTag); purified Nluc added from outside
Experimental: HEK293 were transiently transfected with Nluc-HALOTAG fusion protein to orient Nluc-HALOTAG inside the cell. 24 hrs post-transfection, cells were labeled with NANOBRET 618 ligand to simulate specific intracellular BRET. Cells were then treated 10 ng/mL purified Nluc to simulate spurious extracellular luminescence. Cells were exposed to a compound response curve of the thienopyrrole compounds, JRW-0013, JRW-0051, JRW-0147, and JRW-0187, for 2 hrs. 10 μM furimazine was added, and the BRET ratio 610/450 nm was measured.

Nluc [2] = target: T2, Nluc (Oplophorus gracilirostris, UniProt Q9GV45, A31E/A60N/A81I/F95D/I117V/K70R/L54V/L99Q/M102K/N193R/P142E/Q151K/Q38R/Q45L/V71I/Y165I); assay: Multiplex RealTime-Glo / Caspase-Glo 3/7 in A549 cells; assay type: cell-based; design: purchased Promega Corporation; details: final, 1 hr
Experimental: B) A549 cells were plated at 1,000 cells/well in 20 μL F12K media into wells of a Corning 3570 plate (n-4) and incubated overnight. Then, REALTIME-GLO™ MT Cell Viability assay reagents (Promega Corporation) were added to the wells as a 2× solution in 20 μL media. The reaction was incubated for 1 hr. 40 μL of a titration of JRW-0013 or JRW-0147 in CASPASE-GLO® 3/7 assay reagent (Promega Corporation) at 2× concentrations was added. The reactions were incubated at RT, and luminescence was determined at 1 hr.

Nluc luciferase = Nluc luciferase (Oplophorus gracilirostris, UniProt Q9GV45, A31E/A60N/A81I/F95D/I117V/K70R/L54V/L99Q/M102K/N193R/P142E/Q151K/Q38R/Q45L/V71I/Y165I); assay type: cell-based; design: expressed in transfected cells; host or cells: HEK293; details: HEK293; 10, 30 or 120 minutes
Experimental: HEK293 cells were transiently transfected with Nluc luciferase to express it cytosolically. Twenty-four hours post-transfection, cells were exposed to a compound response curve of the thienopyrrole compound JRW-0147 or JRW-0013 for 10 minutes, 30 minutes, or 120 minutes. 10 μM furimazine was then added, and luminescence was measured.

Nluc [3] = target: T2, Nluc; assay: Multiplex RealTime-Glo / Caspase-Glo 3/7 in DMEM media; assay type: biochemical; design: purchased Promega Corporation; details: for Avg (luminescence), 1 hour: RealTime-Glo reagent in DMEM + Caspase-Glo 3/7
Experimental: In a Corning 3570 assay plate, 1× REAL-TIME-GLO™ MT Cell Viability assay reagent was prepared in 40 μL DMEM media (n=3) and incubated overnight. Next, 40 μL of a titration of JRW-0147 or JRW-0344 (2× concentration in CASPASE-GLO® 3/7 Assay Reagent (Promega Corporation)) was added. The reactions were incubated at room temperature, and luminescence determined at 1 hour.

Nluc [4] = target: T2, Nluc; assay: Specificity of inhibition of Nluc luciferase: Nluc; assay type: biochemical
[5] = tested on: Beta-2 Adrenergic Receptor-Nluc (B2AR-Nluc) fusion protein; assay: Cell permeability, B2AR-Nluc in HEK293 or HeLa cells -/+ digitonin; assay type: cell-based
Experimental: HEK293 or HeLa cells were transiently transfected with Beta-2 Adrenergic Receptor-Nluc (B2AR-Nluc) fusion protein to anchor and orient Nluc cytosolically. 24 hrs post-transfection, cells were treated with −/+50 μg/mL digitonin to emulate a live and lytic scenario, respectively. Then, intact cells and permeabilized cells were exposed to a compound response curve of thienopyrrole compound up to 2 hrs. 10 μM furimazine (Promega Corp.) was added, and luminescence was measured. If a thienopyrrole compound (inhibitor) was permeable, the dose-response curves for both live and permeabilized cells overlapped. However, if a thienopyrrole compound was impermeable, the EC50 was right-shifted in the live cells relative to the permeabilized cells.

T2 sequence (Q9GV45 28-196 with tags or gaps with the stated changes limits assumed): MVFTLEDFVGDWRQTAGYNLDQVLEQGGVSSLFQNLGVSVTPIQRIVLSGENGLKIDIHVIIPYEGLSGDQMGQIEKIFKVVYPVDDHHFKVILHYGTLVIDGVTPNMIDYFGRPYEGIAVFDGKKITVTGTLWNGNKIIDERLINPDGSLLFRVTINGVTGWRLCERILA
T1 sequence (Q9GV45 28-196 with tags or gaps with the stated changes limits assumed): as above
Sequence of Nluc luciferase (Q9GV45 28-196 with tags or gaps with the stated changes limits assumed): as above

CCN(C(=O)Cn1c(C(=O)N[C@H]2CC[C@H](C(=O)NCCCCCC(=O)O)CC2)cc2sccc21)c1cccc(C)c1 [JRW-0147, 6-(trans-4-(4-(2-(ethyl(m-tolyl)amino)-2-oxoethyl)-4H-thieno[3,2-b]pyrrole-5-carboxamido)cyclohexane-1-carboxamido)hexanoic acid]
BRET ratio 610/450 nm across compound dose-response curve (FIGS. 13B-13E) [1]: intracellular BRET ratio was enhanced | Caspase, Avg (luminescence) (Nluc [2]; Inhibitor 1.73 μM): 15580 | Caspase, Avg (luminescence) (Nluc [2]; Inhibitor 2.60 μM): 11677 | Caspase, Avg (luminescence) (Nluc [2]; Inhibitor 3.90 μM): 9790 | Caspase, Avg (luminescence) (Nluc [2]; Inhibitor 5.85 μM): 8013 | Caspase, Avg (luminescence) (Nluc [2]; Inhibitor 8.78 μM): 7125 | Caspase, Avg (luminescence) (Nluc [2]; Inhibitor 13.17 μM): 5545 | Caspase, Avg (luminescence) (Nluc [2]; Inhibitor 19.75 μM): 5302 | Caspase, Avg (luminescence) (Nluc [2]; Inhibitor 29.63 μM): 4394 | Caspase, Avg (luminescence) (Nluc [2]; Inhibitor 44.44 μM): 4367 | Caspase, Avg (luminescence) (Nluc [2]; Inhibitor 66.67 μM): 3427 | Caspase, Avg (luminescence) (Nluc [2]; Inhibitor 100 μM): 3389 | Change in RLUs from cytosolic Nluc (FIG. 16) (Nluc luciferase): no significant change in RLUs from Nluc | S/B, 1 hour (Nluc [3]; [cmpd] final 0.09765625 μM): 0.84 | Avg (luminescence), 1 hour (Nluc [3]; [cmpd] final 0.09765625 μM): 117067 | S/B, 1 hour (Nluc [3]; [cmpd] final 0.1953125 μM): 0.89 | Avg (luminescence), 1 hour (Nluc [3]; [cmpd] final 0.1953125 μM): 124500 | S/B, 1 hour (Nluc [3]; [cmpd] final 0.390625 μM): 0.85 | Avg (luminescence), 1 hour (Nluc [3]; [cmpd] final 0.390625 μM): 117833 | S/B, 1 hour (Nluc [3]; [cmpd] final 0.78125 μM): 0.77 | Avg (luminescence), 1 hour (Nluc [3]; [cmpd] final 0.78125 μM): 106867 | S/B, 1 hour (Nluc [3]; [cmpd] final 1.5625 μM): 0.47 | Avg (luminescence), 1 hour (Nluc [3]; [cmpd] final 1.5625 μM): 65173 | S/B, 1 hour (Nluc [3]; [cmpd] final 3.125 μM): 0.32 | Avg (luminescence), 1 hour (Nluc [3]; [cmpd] final 3.125 μM): 45167 | S/B, 1 hour (Nluc [3]; [cmpd] final 6.25 μM): 0.20 | Avg (luminescence), 1 hour (Nluc [3]; [cmpd] final 6.25 μM): 27817 | S/B, 1 hour (Nluc [3]; [cmpd] final 12.5 μM): 0.12 | Avg (luminescence), 1 hour (Nluc [3]; [cmpd] final 12.5 μM): 17293 | S/B, 1 hour (Nluc [3]; [cmpd] final 25 μM): 0.08 | Avg (luminescence), 1 hour (Nluc [3]; [cmpd] final 25 μM): 10699 | S/B, 1 hour (Nluc [3]; [cmpd] final 50 μM): 0.06 | Avg (luminescence), 1 hour (Nluc [3]; [cmpd] final 50 μM): 8136 | S/B, 1 hour (Nluc [3]; [cmpd] final 100 μM): 0.05 | Avg (luminescence), 1 hour (Nluc [3]; [cmpd] final 100 μM): 6568 | Nluc, Avg (luminescence) (Nluc [4]; [cmpd] 0.1953125 μM): 115442 | Nluc, S/B (Nluc [4]; [cmpd] 0.1953125 μM): 0.97 | Nluc, Avg (luminescence) (Nluc [4]; [cmpd] 0.390625 μM): 113278 | Nluc, S/B (Nluc [4]; [cmpd] 0.390625 μM): 0.95 | Nluc, Avg (luminescence) (Nluc [4]; [cmpd] 0.78125 μM): 111603 | Nluc, S/B (Nluc [4]; [cmpd] 0.78125 μM): 0.94 | Nluc, Avg (luminescence) (Nluc [4]; [cmpd] 1.5625 μM): 103399 | Nluc, S/B (Nluc [4]; [cmpd] 1.5625 μM): 0.87 | Nluc, Avg (luminescence) (Nluc [4]; [cmpd] 3.125 μM): 96256 | Nluc, S/B (Nluc [4]; [cmpd] 3.125 μM): 0.81 | Nluc, Avg (luminescence) (Nluc [4]; [cmpd] 6.25 μM): 79191 | Nluc, S/B (Nluc [4]; [cmpd] 6.25 μM): 0.67 | Nluc, Avg (luminescence) (Nluc [4]; [cmpd] 12.5 μM): 66480 | Nluc, S/B (Nluc [4]; [cmpd] 12.5 μM): 0.56 | Nluc, Avg (luminescence) (Nluc [4]; [cmpd] 25 μM): 54498 | Nluc, S/B (Nluc [4]; [cmpd] 25 μM): 0.46 | Nluc, Avg (luminescence) (Nluc [4]; [cmpd] 50 μM): 42630 | Nluc, S/B (Nluc [4]; [cmpd] 50 μM): 0.36 | Nluc, Avg (luminescence) (Nluc [4]; [cmpd] 100 μM): 32702 | Nluc, S/B (Nluc [4]; [cmpd] 100 μM): 0.27 | Nluc, Avg (luminescence) (Nluc [4]; [cmpd] 200 μM): 23722 | Nluc, S/B (Nluc [4]; [cmpd] 200 μM): 0.20 | Cell permeability [5]: cell-impermeable

CCN(C(=O)Cn1c(C(=O)N[C@H]2CC[C@H](C(=O)NCCCCCCS(=O)(=O)[O-])CC2)cc2sccc21)c1cccc(C)c1.[Na+] [JRW-0344, Sodium 6-(trans-4-(4-(2-(ethyl(m-tolyl)amino)-2-oxoethyl)-4H-thieno[3,2-b]pyrrole-5-carboxamido)cyclohexane-1-carboxamido)hexane-1-sulfonate]
S/B, 1 hour (Nluc [3]; [cmpd] final 0.09765625 μM): 0.71 | Avg (luminescence), 1 hour (Nluc [3]; [cmpd] final 0.09765625 μM): 112533 | S/B, 1 hour (Nluc [3]; [cmpd] final 0.1953125 μM): 0.80 | Avg (luminescence), 1 hour (Nluc [3]; [cmpd] final 0.1953125 μM): 126333 | S/B, 1 hour (Nluc [3]; [cmpd] final 0.390625 μM): 0.88 | Avg (luminescence), 1 hour (Nluc [3]; [cmpd] final 0.390625 μM): 138900 | S/B, 1 hour (Nluc [3]; [cmpd] final 0.78125 μM): 0.61 | Avg (luminescence), 1 hour (Nluc [3]; [cmpd] final 0.78125 μM): 95993 | S/B, 1 hour (Nluc [3]; [cmpd] final 1.5625 μM): 0.41 | Avg (luminescence), 1 hour (Nluc [3]; [cmpd] final 1.5625 μM): 65097 | S/B, 1 hour (Nluc [3]; [cmpd] final 3.125 μM): 0.21 | Avg (luminescence), 1 hour (Nluc [3]; [cmpd] final 3.125 μM): 33523 | S/B, 1 hour (Nluc [3]; [cmpd] final 6.25 μM): 0.12 | Avg (luminescence), 1 hour (Nluc [3]; [cmpd] final 6.25 μM): 19560 | S/B, 1 hour (Nluc [3]; [cmpd] final 12.5 μM): 0.10 | Avg (luminescence), 1 hour (Nluc [3]; [cmpd] final 12.5 μM): 15547 | S/B, 1 hour (Nluc [3]; [cmpd] final 25 μM): 0.06 | Avg (luminescence), 1 hour (Nluc [3]; [cmpd] final 25 μM): 9761 | S/B, 1 hour (Nluc [3]; [cmpd] final 50 μM): 0.04 | Avg (luminescence), 1 hour (Nluc [3]; [cmpd] final 50 μM): 6790 | S/B, 1 hour (Nluc [3]; [cmpd] final 100 μM): 0.03 | Avg (luminescence), 1 hour (Nluc [3]; [cmpd] final 100 μM): 5523 | Nluc, Avg (luminescence) (Nluc [4]; [cmpd] 0.1953125 μM): 102409 | Nluc, S/B (Nluc [4]; [cmpd] 0.1953125 μM): 0.92 | Nluc, Avg (luminescence) (Nluc [4]; [cmpd] 0.390625 μM): 99851 | Nluc, S/B (Nluc [4]; [cmpd] 0.390625 μM): 0.90 | Nluc, Avg (luminescence) (Nluc [4]; [cmpd] 0.78125 μM): 95060 | Nluc, S/B (Nluc [4]; [cmpd] 0.78125 μM): 0.86 | Nluc, Avg (luminescence) (Nluc [4]; [cmpd] 1.5625 μM): 83141 | Nluc, S/B (Nluc [4]; [cmpd] 1.5625 μM): 0.75 | Nluc, Avg (luminescence) (Nluc [4]; [cmpd] 3.125 μM): 71976 | Nluc, S/B (Nluc [4]; [cmpd] 3.125 μM): 0.65 | Nluc, Avg (luminescence) (Nluc [4]; [cmpd] 6.25 μM): 65136 | Nluc, S/B (Nluc [4]; [cmpd] 6.25 μM): 0.59 | Nluc, Avg (luminescence) (Nluc [4]; [cmpd] 12.5 μM): 52627 | Nluc, S/B (Nluc [4]; [cmpd] 12.5 μM): 0.47 | Nluc, Avg (luminescence) (Nluc [4]; [cmpd] 25 μM): 40392 | Nluc, S/B (Nluc [4]; [cmpd] 25 μM): 0.36 | Nluc, Avg (luminescence) (Nluc [4]; [cmpd] 50 μM): 32113 | Nluc, S/B (Nluc [4]; [cmpd] 50 μM): 0.29 | Nluc, Avg (luminescence) (Nluc [4]; [cmpd] 100 μM): 23445 | Nluc, S/B (Nluc [4]; [cmpd] 100 μM): 0.21 | Nluc, Avg (luminescence) (Nluc [4]; [cmpd] 200 μM): 16291 | Nluc, S/B (Nluc [4]; [cmpd] 200 μM): 0.15
